The results in this text go back to US5273974A, “Condensed heterocyclic compounds, their production and use” (priority 1990, dated 1993).

pIC50: −log10 of the molar value. Counter-ions that a name gives are not always drawn.

Usually pIC50 stands for the negative decadic logarithm of the IC50, by convention in mol/L. Lower therefore signals a high IC50.

The target in the assay is T1, Acetylcholinesterase (Rattus norvegicus, UniProt P37136).
T1 construct: S1 fraction of a homogenate of male Wistar rat cerebral cortex; from tissue; host or cells: male Wistar rat cerebral cortex, S1 fraction of homogenate
T1 sequence (P37136 32-614): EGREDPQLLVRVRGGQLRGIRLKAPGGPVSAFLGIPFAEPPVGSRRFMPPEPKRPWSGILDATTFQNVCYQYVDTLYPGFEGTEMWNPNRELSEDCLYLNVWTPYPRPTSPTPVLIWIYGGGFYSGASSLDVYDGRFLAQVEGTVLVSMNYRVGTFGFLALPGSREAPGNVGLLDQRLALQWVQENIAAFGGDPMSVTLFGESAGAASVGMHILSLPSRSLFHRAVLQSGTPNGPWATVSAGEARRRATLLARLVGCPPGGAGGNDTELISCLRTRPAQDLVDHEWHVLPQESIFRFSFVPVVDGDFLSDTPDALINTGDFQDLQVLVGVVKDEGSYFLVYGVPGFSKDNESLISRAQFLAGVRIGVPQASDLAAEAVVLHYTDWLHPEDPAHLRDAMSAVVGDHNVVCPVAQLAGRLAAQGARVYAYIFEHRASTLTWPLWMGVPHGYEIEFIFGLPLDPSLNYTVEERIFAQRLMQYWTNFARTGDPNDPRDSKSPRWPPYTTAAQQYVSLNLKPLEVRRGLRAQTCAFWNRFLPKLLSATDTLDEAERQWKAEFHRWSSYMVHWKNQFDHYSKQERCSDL
Kind of assay: Cholinesterase inhibitory activity assayed with (acetyl-[3H])-acetylcholine (S1 fraction of male Wistar rat cerebral cortex homogenate). The assay is classed as biochemical. The note with it: (acetyl-[3H])-acetylcholine substrate, 30 minutes incubation.
Method: The cholinesterase inhibitory activity of the compound of the present invention was assayed with (acetyl-[3H])-acetylcholine. Thus, using the S1 fraction of a homogenate of male Wistar rat cerebral cortex as the cholinesterase source, (acetyl-[3H])-acetylcholine and the compound of the invention were added as the substrate and the test substance, respectively, and the mixture was incubated for 30 minutes. After the reaction was terminated, a toluene-based scintillant was added and, after shaking, the reaction product [3H]-acetic acid which was transferred to the toluene layer was determined with a scintillation counter to estimate the cholinesterase activity.
The compound `O=C(CCC1CCN(Cc2ccccc2)CC1)c1ccc2c(c1)NCCCC2` [19-16] had a negative-log IC50 (pIC50) of 6.99.
On to `O=C(CCC1CCN(Cc2ccccc2)CC1)c1ccc2c(c1)CCCN2` [Example 2, 6-[1-Oxo-3-[1-(phenylmethyl)piperidin-4-yl]propyl]-1,2,3,4-tetrahydroquinoline dihydrochloride], for which the pIC50 was 7.85.
As for `O=C(CCC1CCN(Cc2ccccc2)CC1)c1ccc2c(c1)CCCN2Cc1ccccc1` [Example 3, 1-(Phenylmethyl)-6-[3-[1-(phenylmethyl)piperidin-4-yl]-1-oxopropyl]-1,2,3,4-tetrahydroquinoline dihydrochloride], the figure is 6.92.
As for `CN1CCCc2cc(C(=O)CCC3CCN(Cc4ccccc4)CC3)ccc21` [Example 4, 1-Methyl-6-[3-[1-(phenylmethyl)piperidin-4-yl]-1-oxopropyl]-1,2,3,4-tetrahydroquinoline dihydrochloride], the figure is 8.00; as for `O=C(CCC1CCN(Cc2ccccc2)CC1)c1ccc2c(c1)CCCN2` [Example 6-A, 6-[1-Oxo-3-[1-(phenylmethyl)piperidin-4-yl]propyl]-1,2,3,4-tetrahydroquinoline fumarate], 7.27; as for `O=C(CCC1CCN(Cc2ccccc2)CC1)c1ccc2c(c1)NCCC2` [Example 6-B, 7-[1-Oxo-3-[1-(phenylmethyl)piperidin-4-yl]propyl]-1,2,3,4-tetrahydroquinoline fumarate], 7.27.
`CN1CCCc2cc(C(=O)CCC3CCN(Cc4ccccc4)CC3)ccc21` [Example 8-A, 1-Methyl-6-[1-oxo-3-[1-(phenylmethyl)piperidin-4-yl]-propyl]-1,2,3,4-tetrahydroquinoline fumarate] had a pIC50 of 7.62.
Regarding `CN1CCCc2ccc(C(=O)CCC3CCN(Cc4ccccc4)CC3)cc21` [Example 8-B, 1-methyl-7-[1-oxo-3-[1-(phenylmethyl)piperidin-4-yl]propyl]-1,2,3,4-tetrahydroquinoline fumarate], the pIC50 is 7.44.
In turn, `O=C(CCC1CCN(Cc2ccccc2)CC1)c1ccc2c(c1)CCCN2Cc1ccccc1` [Example 10, 1-(Phenylmethyl)-6-[1-oxo-3-[1-(phenylmethyl)piperidin-4-yl]propyl]-1,2,3,4-tetrahydroquinoline fumarate] had a negative logarithm of the IC50 (pIC50) of 6.80.
As for `O=C(CCC1CCN(Cc2ccccc2)CC1)c1ccc2c(c1)CCN2` [Example 13, 2,3-Dihydro-5-[1-oxo-3-[1-(phenylmethyl)piperidin-4-yl]propyl]-1H-indole fumarate], the pIC50 is 7.70.
In turn, `CN1CCc2cc(C(=O)CCC3CCN(Cc4ccccc4)CC3)ccc21` [Example 14, 2,3-Dihydro-1-methyl-5-[1-oxo-3-[1-(phenylmethyl)-piperidin-4-yl]propyl]-1H-indole fumarate] gave a negative-log IC50 (pIC50) of 8.00.
On to `O=C(CCC1CCN(Cc2ccccc2)CC1)c1ccc2c(c1)CCN2Cc1ccccc1` [Example 15, 2,3-Dihydro-5-[1-oxo-3-[1-(phenylmethyl)piperidin-4-yl]propyl]-1-(phenylmethyl)-1H-indole fumarate], for which the pIC50 is 7.17.
As for `CC(=O)N1CCCc2cc(C(=O)CCC3CCN(Cc4ccccc4)CC3)ccc21` [Example 16, 1-Acetyl-6-[1-oxo-3-[1-(phenylmethyl)piperidin-4-yl]propyl]-1,2,3,4-tetrahydroquinoline fumarate], the negative logarithm of the IC50 (pIC50) is 7.85.
Turning to `Cc1cccc(CN2CCC(CCC(=O)c3ccc4c(c3)CCN4)CC2)c1` [Example 19-7], the pIC50 was 7.30.
With `O=C(CCC1CCN(Cc2cccc(F)c2)CC1)c1ccc2c(c1)CCN2` [Example 19-8], the pIC50 was 7.80.
`CCN1CCc2cc(C(=O)CCC3CCN(Cc4ccccc4)CC3)ccc21` [Example 19-11] gave a pIC50 of 7.96.
As for `CCCN1CCc2cc(C(=O)CCC3CCN(Cc4ccccc4)CC3)ccc21` [Example 19-12], the pIC50 was 7.66.
`CCCCN1CCc2cc(C(=O)CCC3CCN(Cc4ccccc4)CC3)ccc21` [Example 19-13] showed a pIC50 of 7.54.
In turn, `CCCCCN1CCc2cc(C(=O)CCC3CCN(Cc4ccccc4)CC3)ccc21` [Example 19-14] showed a pIC50 of 7.33.
Regarding `O=C(CCC1CCN(Cc2ccccc2)CC1)c1ccc2c(c1)CCN2CCc1ccccc1` [Example 19-15], the pIC50 was 7.55.
`CN1CCCCc2ccc(C(=O)CCC3CCN(Cc4ccccc4)CC3)cc21` [Example 19-17]: the pIC50 is 7.09.
For the compound `O=C(CCC1CCN(Cc2ccccc2)CC1)c1ccc2c(c1)CCCCN2` [Example 19-20], the pIC50 is 6.90.
`O=C(CCC1CCN(Cc2cccc(F)c2)CC1)c1ccc2c(c1)NCCCC2` [Example 19-21] gave a pIC50 of 6.84.
As for `O=C(CCC1CCN(Cc2ccccc2)CC1)c1ccc2c(c1)CCO2` [Example 21, 2,3-Dihydro-5-[1-oxo-3-[1-(phenylmethyl)piperidin-4-yl]propyl]benzofuran hydrochloride], the figure is 7.55; as for `O=C(CCC1CCN(Cc2ccccc2)CC1)c1ccc2c(c1)CCNCC2` [Example 22, 7-[1-Oxo-3-[1-(phenylmethyl)piperidin-4-yl]propyl]-2,3,4,5-tetrahydro-1H-3-benzazepine dihydrochloride], 8.12; as for `CN1CCc2ccc(C(=O)CCC3CCN(Cc4ccccc4)CC3)cc2CC1` [Example 23, 3-Methyl-7-[1-oxo-3-[1-(phenylmethyl)piperidin-4-yl]-propyl-2,3,4,5-tetrahydro-1H-3-benzazepinedihydrochloride], 8.19.
Consider `O=C(CCC1CCN(Cc2ccccc2)CC1)c1ccc2c(c1)NCC2` [Example 25, 2,3-Dihydro-6-[1-oxo-3-[1-(phenylmethyl)piperidin-4-yl]propyl]-1H-indole fumarate], for which the pIC50 is 6.95.
As for `O=C(CCC1CCN(Cc2ccccc2)CC1)c1ccc2c(c1)NCCCCC2` [Example 27, 9-[1-Oxo-3-[1-(phenylmethyl)piperidin-4-yl]propyl]-1,2,3,4,5,6-hexahydro-1-benzazocine fumarate], the figure is 6.90.
